{"source": "patent US11298353B2", "about": "“Anti-inflammatory composition” (OSTEONEUROGEN INC., priority 2019, dated 2022)", "key": {"RAW264.7 cell line [1]": {"system": "RAW264.7 cell line", "experiment": "TNFα expression in macrophages treated with various concentrations of LPS (real-time PCR)", "assay_type": "cell-based", "conditions": "LPS 100 ng/ml to 10 μg/ml + compound 50 μM", "method": "(§1) Specifically, the RAW264.7 cell line was cultured in RPMI liquid medium, and then divided into a normal control group (untreated), a group treated with LPS (100 ng/ml), and a group treated with the compound of the present invention (cells treated with 100 ng/ml of LPS and treated with 25 or 50 μM of the compound of the present invention). Each of the test groups treated was incubated for 24 hours, and then total RNA was extracted from the cell of each test group and synthesized into cDNA per 1 μg of total RNA, and real-time PCR for each inflammatory factor was performed. The real-time PCR was performed for […], and then the obtained data were statistically processed using t-test.\nIn addition, according to the same method as described above, the RAW264.7 cell line was treated with various concentrations (100 ng/ml to 10 μg/ml) of LPS, and the effect of treatment with 50 μM of the compound (Formula 2) of the present invention was examined."}, "RAW264.7 cell line [2]": {"system": "RAW264.7 cell line", "experiment": "Expression of inflammatory factors in LPS-treated macrophages (real-time PCR or ELISA)", "assay_type": "cell-based", "conditions": "LPS 100 ng/ml + compound 25 or 50 μM, 24 hours", "description": "In order to confirm the effect of the compound of the present invention in a special anti-inflammatory model, the anti-inflammatory effect of the compound of the present invention was examined using the RAW264.7 cell line (macrophage cell line).\nUsing the RAW264.7 cell line, the expression of inflammatory factors, INFα, IL-1β, CCL2 (MCP-1), CCL7 (MCP-3), CXCL2, CHOP and NOX1, in a group treated with LPS (lipopolysaccharide) and a group treated with LPS+the compound (Formula 2) of the present invention, was compared by real-time PCR or ELISA.\nas §1"}, "ONGHEPA1 cell line [3]": {"system": "ONGHEPA1 cell line", "experiment": "Reactive oxygen species production in TGF-β-treated hepatic stellate cells (H2DCFDA staining)", "assay_type": "cell-based, mouse", "conditions": "TGF-β 10 ng/ml + compound 50 μM", "method": "(§2) Using the ONGHEPA1 cell line, the production of reactive oxygen species (ROS) in a group treated with TGF-β (10 ng/ml) and a group treated with TGF-β (10 ng/ml)+the compound (Formula 2; 50 μM) of the present invention was compared by cell staining H2DCFDA (ThermoFischer, D399) which is a reactive oxygen species staining reagent, and the expression of CCL2 and CCL7 was compared by real-time PCR."}, "[4]": {"system": "diseased human lung fibroblasts (DHLFs)", "experiment": "Transcriptome analysis of TGF-β-treated diseased human lung fibroblasts", "assay_type": "cell-based", "conditions": "TGF-β 10 ng/ml + compound 50 μM, genes up-regulated at p<0.005", "method": "Using diseased human lung fibroblasts (DHLFs) isolated from idiopathic pulmonary fibrosis patients, transcriptomes were analyzed comparatively between a group treated with TGF-β (10 ng/ml) and a group treated with TGF-β (10 ng/ml)+the compound (Formula 2) (50 μM) of the present invention."}, "ONGHEPA1 cell line [5]": {"system": "ONGHEPA1 cell line", "experiment": "NOX4 expression in TGF-β-treated hepatic stellate cells (real-time PCR, ICC)", "assay_type": "cell-based, mouse", "conditions": "TGF-β 10 ng/ml + compound 50 μM, real-time PCR and ICC", "method": "Using the ONGHEPA1 cell line (KCTC13086BP) which is a mouse hepatic stellate cell line, the expression of NOX4 in a group treated with TGF-β (10 ng/ml) and a group treated with TGF-β (10 ng/ml)+the compound (Formula 2; 50 μM) of the present invention was compared by real-time PCR and immunocytochemistry (ICC)."}, "CD14 [6]": {"system": "CD14", "experiment": "CD14 expression in LPS-treated RAW264.7 cells (Western blot)", "assay_type": "cell-based", "conditions": "LPS 100 ng/ml + compound 50 μM, 5 to 15 minutes after LPS", "method": "In addition, in order to examine the effect of the compound of the present invention on the expression of CD14, the expression of CD14 in a group treated with LPS (100 ng/ml) and a group treated with 50 μM of the compound (Formula 2) of the present invention was compared by Western blot analysis."}, "ONGHEPA1 cell line [7]": {"system": "ONGHEPA1 cell line", "experiment": "CCL2 and CCL7 expression in TGF-β-treated hepatic stellate cells (real-time PCR)", "assay_type": "cell-based, mouse", "conditions": "TGF-β 10 ng/ml + compound 50 μM", "method": "as §2"}, "CD14 [8]": {"molecular_target": "T1, CD14 (Mus musculus, UniProt P10810)", "T1 construct": "endogenous in cells; host or cells: RAW264.7", "T1 sequence (P10810 16-336)": "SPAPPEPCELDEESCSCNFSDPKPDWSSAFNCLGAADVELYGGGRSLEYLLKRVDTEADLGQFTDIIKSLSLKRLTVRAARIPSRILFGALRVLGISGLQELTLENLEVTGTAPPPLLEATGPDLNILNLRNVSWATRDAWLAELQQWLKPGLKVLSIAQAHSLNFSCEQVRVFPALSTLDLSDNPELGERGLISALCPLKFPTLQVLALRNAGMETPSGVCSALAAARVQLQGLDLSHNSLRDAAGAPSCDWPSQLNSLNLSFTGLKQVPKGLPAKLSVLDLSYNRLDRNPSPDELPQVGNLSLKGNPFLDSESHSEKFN", "experiment": "CD14 FITC immunofluorescence staining in LPS-treated RAW264.7 cells", "assay_type": "cell-based", "conditions": "LPS 100 ng/ml + compound 50 μM", "description": "To verify this determination, the change in expression of an early inflammatory response stage factor (a factor involved in the early stage of LPS-induced inflammatory response) by treatment with the compound (Formula 2) of the present invention was examined by immunofluorescence staining using FITC.\nLooking at the control group in FIG. 9 (see FIG. 10 which is an enlarged view), it can be seen that FITC fluorescence is concentrated on the surface (membrane portion) of the cell. […] However, looking at the LPS-treated group (see FIG. 10 which is an enlarged view), it can be seen that the cell changes into a circular shape and FITC fluorescence is distributed throughout the cell without being concentrated on the surface of the cell. This means that when treated with LPS, CD14 did bind to LPS and endocytosis occurred. In the case of the group treated with the compound of the present invention (see FIG. 12 which is an enlarged view), the same pattern as that in the control group appeared despite LPS treatment."}}, "data": [{"smiles": "COc1ccc(-c2cc(=O)c3c(O)c(OC)c(OCCN4CCNC(=O)C4)cc3o2)cc1OC", "note": "[Formula 2]", "values": [{"measurement": "expression of TNFα", "setting": "RAW264.7 cell line [1]", "value": "blocked the expression of TNFα regardless of the concentration of LPS"}, {"measurement": "expression of CCL2 (MCP-1)", "setting": "RAW264.7 cell line [2]", "value": "decreased"}, {"measurement": "expression of CCL7 (MCP-3)", "setting": "RAW264.7 cell line [2]", "value": "decreased"}, {"measurement": "expression of CHOP", "setting": "RAW264.7 cell line [2]", "value": "decreased"}, {"measurement": "expression of CXCL2", "setting": "RAW264.7 cell line [2]", "value": "decreased"}, {"measurement": "expression of IL-1β", "setting": "RAW264.7 cell line [2]", "value": "decreased"}, {"measurement": "expression of INFα", "setting": "RAW264.7 cell line [2]", "value": "decreased"}, {"measurement": "expression of NOX1", "setting": "RAW264.7 cell line [2]", "value": "decreased"}, {"measurement": "production of reactive oxygen species", "setting": "ONGHEPA1 cell line [3]", "value": "inhibited"}, {"measurement": "inhibition of TGF-β up-regulated gene expression: NOX4", "setting": "[4]", "value": "selected genes included NOX4"}, {"measurement": "increase in the expression of NOX4", "setting": "ONGHEPA1 cell line [5]", "value": "inhibited"}, {"measurement": "increase in expression of CD14", "setting": "CD14 [6]", "value": "decreased"}, {"measurement": "expression of CCL2", "setting": "ONGHEPA1 cell line [7]", "value": "inhibited"}, {"measurement": "expression of CCL7", "setting": "ONGHEPA1 cell line [7]", "value": "inhibited"}, {"measurement": "activity of CD14 involved in the early stage of inflammatory response", "setting": "CD14 [8]", "value": "inhibited"}, {"measurement": "interaction between CD14 and LPS (CD14 endocytosis pattern)", "setting": "CD14 [8]", "value": "blocked the interaction between CD14 and LPS"}]}]}
